Experimental data published in patent US4895727A, “Pharmaceutical vehicles for exhancing penetration and retention in the skin” (priority 1985, dated 1990).

System: human breast adenocarcinoma, MX-1
Settings: in vivo

Row | Molecule | Premature Death | Tumor at Death | Tumor Free 60 Days | Tumor Recurrence
1 | CC(Cc1ccc(O)c(O)c1)C(C)Cc1ccc(O)c(O)c1 (racemic) [dl-NDGA (no Zn), nordihydroguaiaretic acid] | 0 | 1 | – | –
2 | Oc1ccc(CCc2ccc(CCc3ccc(O)c(O)c3)cc2)cc1O [1,4-bis(3,4-dihydroxyphenethyl)-benzene] | 0 | – | – | –
3 | CC(=O)Oc1ccc(C=CC=Cc2ccccc2)cc1OC(C)=O [1-(3,4-diacetoxyphenyl)-4-phenyl-buta-1,3-diene] | 0 | – | – | –
4 | CC(C)(C)c1cccc(O)c1 [3-tertbutylphenol (no Zn), 3-tertbutylphenol] | 3 | – | – | –
5 | COc1cc(C2c3cc4c(cc3C(O)C3COC(=O)C23)OCO4)cc(OC)c1O (centres unmarked) [4'-demethylepipodophyllotoxin (no Zn), 4'-demethylepipodophyllotoxin] | 0 | 4 | 1 | 3
6 | COc1cc(C2c3cc4c(cc3C(OC3OC5COC(c6cccs6)OC5C(O)C3O)C3COC(=O)C23)OCO4)cc(OC)c1O (stereo not drawn) [VM-26 (no Zn), epipodophyllotoxin beta-D thenylidene glucopyranoside] | 0 | 5 | 0 | 0
7 | COc1cc(C2c3cc4c(cc3C(OC3OC5COC(C)OC5C(O)C3O)C3COC(=O)C23)OCO4)cc(OC)c1O (stereo not drawn) [VP-16 (no Zn), epipodophyllotoxin beta-D ethylidene glucopyranoside] | 2 | 3 | 2 | 0
8 | COc1cccc2c1C(=O)c1c(O)c3c(c(O)c1C2=O)C[C@@](O)(C(=O)CO)C[C@@H]3O[C@H]1C[C@H](N)[C@H](O)[C@H](C)O1 [adriamycin (no Zn), adriamycin] | 1 | – | – | –
9 | Oc1ncnc2[nH]ncc12 [allopurinol (no Zn), allopurinol] | 0 | – | – | –
10 | O=C(O)CCCCCCCC(=O)O [azelaic acid (no Zn), azelaic acid] | 0 | – | – | –
11 | O=P1(N(CCCl)CCCl)NCCCO1 (centres unmarked) [cyclophosphamide (no Zn), cyclophosphamide] | 0 | 5 | – | –
12 | COc1cccc2c1C(=O)c1c(O)c3c(c(O)c1C2=O)C[C@@](O)(C(C)=O)C[C@@H]3O[C@H]1C[C@H](N)[C@H](O)[C@H](C)O1 [daunomycin (no Zn), daunomycin] | 2 | – | – | –
13 | CC/C(=C(/CC)c1ccc(O)cc1)c1ccc(O)cc1 [diethylstilbestrol (no Zn), diethylstilbestrol] | 2 | – | – | –
14 | O=C1c2c(O)cccc2Cc2cccc(O)c21 [dithranol (no Zn), dithranol] | 0 | – | – | –
15 | CO[C@@]12[C@H](COC(N)=O)C3=C(C(=O)C(C)=C(N)C3=O)N1C[C@@H]1N[C@@H]12 [mitomycin (no Zn), mitomycin] | 4 | – | – | –
16 | O=C(O)C=Cc1ccc(O)cc1 [p-hydroxycinnamic acid (no Zn), p-hydroxycinnamic acid] | 0 | – | – | –
17 | N.N.[Cl][Pt][Cl] [platinum cis-diamine-dichloride (no Zn), platinum cis-diamine-dichloride] | 0 | 4 | – | –
18 | norisoguaiacin [norisoguaiacin (no Zn)] | 1 | 1 | – | –

Same assay, conditions: number of animals of five; single intratumor injection 0.01 ml; standard dosage level

Row | Molecule | Tumor Free 60 Days | Tumor Recurrence
19 | CC(Cc1ccc(O)c(O)c1)C(C)Cc1ccc(O)c(O)c1 (racemic) [dl-NDGA (no Zn), nordihydroguaiaretic acid] | 4 | 0
20 | O=P1(N(CCCl)CCCl)NCCCO1 (centres unmarked) [cyclophosphamide (no Zn), cyclophosphamide] | 0 | 0
21 | N.N.[Cl][Pt][Cl] [platinum cis-diamine-dichloride (no Zn), platinum cis-diamine-dichloride] | 1 | 0
22 | norisoguaiacin [norisoguaiacin (no Zn)] | 2 | 0

System: not given
Settings: background; cited from earlier work

Row | Molecule | systemic toxicity
23 | CN(Cc1cnc2nc(N)nc(N)c2n1)c1ccc(C(=O)N[C@@H](CCC(=O)O)C(=O)O)cc1 [methotrexate] | systemically toxic

System: not given
Settings: 0.257 moles per 100 grams; general statement; cited from earlier work

Row | Molecule | concentration causing tissue destruction when topically applied
24 | [Cl-].[Cl-].[Zn+2] [zinc chloride] | ≥ 35%
